Experimental data from patent publication US8530489B2 (Vertex Pharmaceuticals Incorporated, priority 2006, dated 2013).

Target: PLK1 (Homo sapiens, UniProt P53350)
Assay: PLK1 Inhibition Assay I (radioactive-phosphate incorporation)
Assay type: biochemical
Details: Ki(app); PLK1 Inhibition Assay I or II (table does not say which)
Protocol: The compounds of the present invention are evaluated as inhibitors of human PLK kinase using the following assays.
Compounds were screened for their ability to inhibit PLK1 using a radioactive-phosphate incorporation assay. Assays were carried out in a mixture of 25 mM HEPES (pH 7.5), 10 mM MgCl2, and 1 mM DTT. Final substrate concentrations were 350 μM [γ-33P]ATP (136 mCi 33P ATP/mmol ATP, Amersham Pharmacia Biotech/Sigma Chemicals) and 450 μM peptide (KKKISDELMDATFADQEAK) [SEQ. ID:1]. Assays were carried out at 25° C. in the presence of 2 nM PLK1. An assay stock buffer solution was prepared containing all of the reagents listed above, with the exception of ATP and the test compound of interest. 30 μL of the stock solution was placed in a 96 well plate followed by addition of 2 μL of DMSO stock containing serial dilutions of the test compound (typically starting from a final concentration of 10 μM with 2-fold serial dilutions) in duplicate (final DMSO concentration 5%). The plate was pre-incubated for 10 minutes at 25° C. and the reaction initiated by addition of 8 μL [γ-33P]ATP (final concentration 350 μM).
The reaction was stopped after 240 minutes by the addition of 100 μL 0.14M phosphoric acid. A multiscreen phosphocellulose filter 96-well plate (Millipore, Cat No. MAPHN0B50) was pretreated with 100 μL 0.1 M phosphoric acid prior to the addition of 125 μL of the stopped assay mixture. The plate was washed with 4×200 μL 0.1 M phosphoric acid. After drying, 100 μL Optiphase ‘SuperMix’ liquid scintillation cocktail (Perkin Elmer) was added to the well prior to scintillation counting (1450 Microbeta Liquid Scintillation Counter, Wallac).
After removing mean background values for all of the data points, Ki(app) data were calculated from non-linear regression analysis of the initial rate data using the Prism software package (GraphPad Prism version 3.0cx for Macintosh, GraphPad Software, San Diego Calif., USA).

Sequence of PLK1 (P53350 whole entry): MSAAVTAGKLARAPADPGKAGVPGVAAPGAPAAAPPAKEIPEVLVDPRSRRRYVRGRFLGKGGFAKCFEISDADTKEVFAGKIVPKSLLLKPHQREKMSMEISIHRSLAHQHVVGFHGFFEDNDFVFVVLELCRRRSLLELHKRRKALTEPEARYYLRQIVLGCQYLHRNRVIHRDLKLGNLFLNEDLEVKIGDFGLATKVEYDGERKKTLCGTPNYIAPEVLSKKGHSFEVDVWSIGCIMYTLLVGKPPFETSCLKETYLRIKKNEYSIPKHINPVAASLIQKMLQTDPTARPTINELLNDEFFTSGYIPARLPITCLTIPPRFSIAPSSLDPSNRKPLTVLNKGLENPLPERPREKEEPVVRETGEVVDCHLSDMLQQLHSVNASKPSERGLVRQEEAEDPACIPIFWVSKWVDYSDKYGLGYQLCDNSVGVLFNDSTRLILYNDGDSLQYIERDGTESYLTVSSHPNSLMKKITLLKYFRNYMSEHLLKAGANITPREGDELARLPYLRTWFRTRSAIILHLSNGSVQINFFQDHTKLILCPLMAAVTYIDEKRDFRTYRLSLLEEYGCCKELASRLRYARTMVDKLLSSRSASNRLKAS

Row | Compound | Ki
1 | CNc1ncc(C#N)c(-c2c[nH]c3ncc(C(F)(F)F)cc23)n1 [Compound I-2, 2-(methylamino)-4-(5-(trifluoromethyl)-1H-pyrrolo[2,3-b]pyridin-3-yl)pyrimidine-5-carbonitrile] | > 40 nM
2 | CC(C)(C)Nc1ncc(C#N)c(-c2c[nH]c3ncc(C(F)(F)F)cc23)n1 [Compound I-4, 2-(tert-butylamino)-4-(5-(trifluoromethyl)-1H-pyrrolo[2,3-b]pyridin-3-yl)pyrimidine-5-carbonitrile] | > 40 nM
3 | C[C@H](Nc1ncc(C#N)c(-c2c[nH]c3ncc(C(F)(F)F)cc23)n1)c1ccccc1 [Compound I-5, 2-((S)-1-phenylethylamino)-4-(5-(trifluoromethyl)-1H-pyrrolo[2,3-b]pyridin-3-yl)pyrimidine-5-carbonitrile] | > 40 nM
4 | N#Cc1cnc(NCCc2ccccc2)nc1-c1c[nH]c2ncc(C(F)(F)F)cc12 [Compound I-7, 2-(phenethylamino)-4-(5-(trifluoromethyl)-1H-pyrrolo[2,3-b]pyridin-3-yl)pyrimidine-5-carbonitrile] | > 40 nM
5 | CN(Cc1ccccc1)c1ncc(C#N)c(-c2c[nH]c3ncc(C(F)(F)F)cc23)n1 [Compound I-8, 2-(benzyl(methyl)amino)-4-(5-(trifluoromethyl)-1H-pyrrolo[2,3-b]pyridin-3-yl)pyrimidine-5-carbonitrile] | > 40 nM
6 | CCN(Cc1ccccc1)c1ncc(C#N)c(-c2c[nH]c3ncc(C(F)(F)F)cc23)n1 [Compound I-11, 2-(benzyl(ethyl)amino)-4-(5-(trifluoromethyl)-1H-pyrrolo[2,3-b]pyridin-3-yl)pyrimidine-5-carbonitrile] | > 40 nM
7 | COc1ccc(CNc2ncc(C#N)c(-c3c[nH]c4ncc(C(F)(F)F)cc34)n2)cc1 [Compound I-12, 2-(4-methoxybenzylamino)-4-(5-(trifluoromethyl)-1H-pyrrolo[2,3-b]pyridin-3-yl)pyrimidine-5-carbonitrile] | > 40 nM
8 | N#Cc1cnc(NCc2cccc(Cl)c2)nc1-c1c[nH]c2ncc(C(F)(F)F)cc12 [Compound I-13, 2-(3-chlorobenzylamino)-4-(5-(trifluoromethyl)-1H-pyrrolo[2,3-b]pyridin-3-yl)pyrimidine-5-carbonitrile] | > 40 nM
9 | COc1ccccc1CNc1ncc(C#N)c(-c2c[nH]c3ncc(C(F)(F)F)cc23)n1 [Compound I-15, 2-(2-methoxybenzylamino)-4-(5-(trifluoromethyl)-1H-pyrrolo[2,3-b]pyridin-3-yl)pyrimidine-5-carbonitrile] | > 40 nM
10 | N#Cc1cnc(NCc2ccccc2Cl)nc1-c1c[nH]c2ncc(C(F)(F)F)cc12 [Compound I-17, 2-(2-chlorobenzylamino)-4-(5-(trifluoromethyl)-1H-pyrrolo[2,3-b]pyridin-3-yl)pyrimidine-5-carbonitrile] | > 40 nM
11 | N#Cc1cnc(NCc2ccc(Cl)cc2)nc1-c1c[nH]c2ncc(C(F)(F)F)cc12 [Compound I-19, 2-(4-chlorobenzylamino)-4-(5-(trifluoromethyl)-1H-pyrrolo[2,3-b]pyridin-3-yl)pyrimidine-5-carbonitrile] | > 40 nM
12 | COc1cccc(CNc2ncc(C#N)c(-c3c[nH]c4ncc(C(F)(F)F)cc34)n2)c1 [Compound I-20, 2-(3-methoxybenzylamino)-4-(5-(trifluoromethyl)-1H-pyrrolo[2,3-b]pyridin-3-yl)pyrimidine-5-carbonitrile] | > 40 nM
13 | N#Cc1cnc(NCc2ccccc2F)nc1-c1c[nH]c2ncc(C(F)(F)F)cc12 [Compound I-21, 2-(2-fluorobenzylamino)-4-(5-(trifluoromethyl)-1H-pyrrolo[2,3-b]pyridin-3-yl)pyrimidine-5-carbonitrile] | > 40 nM
14 | N#Cc1cnc(NCc2ccc(F)cc2)nc1-c1c[nH]c2ncc(C(F)(F)F)cc12 [Compound I-22, 2-(4-fluorobenzylamino)-4-(5-(trifluoromethyl)-1H-pyrrolo[2,3-b]pyridin-3-yl)pyrimidine-5-carbonitrile] | > 40 nM
15 | N#Cc1cnc(NCc2ccncc2)nc1-c1c[nH]c2ncc(C(F)(F)F)cc12 [Compound I-23, 2-(pyridin-4-ylmethylamino)-4-(5-(trifluoromethyl)-1H-pyrrolo[2,3-b]pyridin-3-yl)pyrimidine-5-carbonitrile] | > 40 nM
16 | N#Cc1cnc(NC2CC2c2ccccc2)nc1-c1c[nH]c2ncc(C(F)(F)F)cc12 (centres unmarked) [Compound I-27, 2-(2-phenylcyclopropylamino)-4-(5-(trifluoromethyl)-1H-pyrrolo[2,3-b]pyridin-3-yl)pyrimidine-5-carbonitrile] | > 40 nM
17 | CC(C)(C)OC(=O)N1CCC(CNc2ncc(C#N)c(-c3c[nH]c4ncc(C(F)(F)F)cc34)n2)CC1 [Compound I-28, tert-butyl 4-((5-cyano-4-(5-(trifluoromethyl)-1H-pyrrolo[2,3-b]pyridin-3-yl)pyrimidin-2-ylamino)methyl)piperidine-1-carboxylate] | > 40 nM

Results, then the compound that gave them:

Row | Ki | Compound
18 | > 40 nM | CC(C)(Nc1ncc(C#N)c(-c2c[nH]c3ncc(Cl)cc23)n1)C(=O)NCCC(F)(F)F
19 | < 3 nM | C[C@@H](Nc1ncc(C#N)c(-c2c[nH]c3ncc(C(F)(F)F)cc23)n1)[C@H]1CC[C@H](NS(C)(=O)=O)CC1 (single isomer, unassigned) [Compound I-202]
20 | < 3 nM | C[C@@H](Nc1ncc(C#N)c(-c2c[nH]c3ncc(C(F)(F)F)cc23)n1)[C@H]1CC[C@@H](NS(C)(=O)=O)CC1 (single isomer, unassigned) [Compound I-203]
21 | > 40 nM | N#Cc1cnc(NCc2ccccc2)nc1-c1c[nH]c2ncc(C(F)(F)F)cc12 [Compound I-1, 2-(benzylamino)-4-(5-(trifluoromethyl)-1H-pyrrolo[2,3-b]pyridin-3-yl)pyrimidine-5-carbonitrile]
22 | 3 to 40 nM | CC(C)Nc1ncc(C#N)c(-c2c[nH]c3ncc(C(F)(F)F)cc23)n1 [Compound I-3, 2-(isopropylamino)-4-(5-(trifluoromethyl)-1H-pyrrolo[2,3-b]pyridin-3-yl)pyrimidine-5-carbonitrile]
23 | < 3 nM | C[C@@H](Nc1ncc(C#N)c(-c2c[nH]c3ncc(C(F)(F)F)cc23)n1)c1ccccc1 [Compound I-6, 2-((R)-1-phenylethylamino)-4-(5-(trifluoromethyl)-1H-pyrrolo[2,3-b]pyridin-3-yl)pyrimidine-5-carbonitrile]
24 | 3 to 40 nM | CC(C)(Nc1ncc(C#N)c(-c2c[nH]c3ncc(C(F)(F)F)cc23)n1)c1ccccc1 [Compound I-9, 2-(2-phenylpropan-2-ylamino)-4-(5-(trifluoromethyl)-1H-pyrrolo[2,3-b]pyridin-3-yl)pyrimidine-5-carbonitrile]
25 | 3 to 40 nM | N#Cc1cnc(NC2CCCCC2)nc1-c1c[nH]c2ncc(C(F)(F)F)cc12 [Compound I-10, 2-(cyclohexylamino)-4-(5-(trifluoromethyl)-1H-pyrrolo[2,3-b]pyridin-3-yl)pyrimidine-5-carbonitrile]
26 | 3 to 40 nM | N#Cc1cnc(NCc2cccnc2)nc1-c1c[nH]c2ncc(C(F)(F)F)cc12 [Compound I-14, 2-(pyridin-3-ylmethylamino)-4-(5-(trifluoromethyl)-1H-pyrrolo[2,3-b]pyridin-3-yl)pyrimidine-5-carbonitrile]
27 | 3 to 40 nM | CCC(Nc1ncc(C#N)c(-c2c[nH]c3ncc(C(F)(F)F)cc23)n1)c1ccccc1 (centres unmarked) [Compound I-16, 2-(1-phenylpropylamino)-4-(5-(trifluoromethyl)-1H-pyrrolo[2,3-b]pyridin-3-yl)pyrimidine-5-carbonitrile]
28 | 3 to 40 nM | N#Cc1cnc(NCc2cccc(F)c2)nc1-c1c[nH]c2ncc(C(F)(F)F)cc12 [Compound I-18, 2-(3-fluorobenzylamino)-4-(5-(trifluoromethyl)-1H-pyrrolo[2,3-b]pyridin-3-yl)pyrimidine-5-carbonitrile]
29 | 3 to 40 nM | CC(C)C(C)Nc1ncc(C#N)c(-c2c[nH]c3ncc(C(F)(F)F)cc23)n1 (centres unmarked) [Compound I-24, 2-(3-methylbutan-2-ylamino)-4-(5-(trifluoromethyl)-1H-pyrrolo[2,3-b]pyridin-3-yl)pyrimidine-5-carbonitrile]
30 | 3 to 40 nM | N#Cc1cnc(Nc2ccccc2)nc1-c1c[nH]c2ncc(C(F)(F)F)cc12 [Compound I-25, 2-(phenylamino)-4-(5-(trifluoromethyl)-1H-pyrrolo[2,3-b]pyridin-3-yl)pyrimidine-5-carbonitrile]
31 | < 3 nM | COc1ccc([C@@H](C)Nc2ncc(C#N)c(-c3c[nH]c4ncc(C(F)(F)F)cc34)n2)cc1 [Compound I-26, 2-((R)-1-(4-methoxyphenyl)ethylamino)-4-(5-(trifluoromethyl)-1H-pyrrolo[2,3-b]pyridin-3-yl)pyrimidine-5-carbonitrile]
32 | 3 to 40 nM | N#Cc1cnc(NCC2CCCCC2)nc1-c1c[nH]c2ncc(C(F)(F)F)cc12 [Compound I-29, 2-(cyclohexylmethylamino)-4-(5-(trifluoromethyl)-1H-pyrrolo[2,3-b]pyridin-3-yl)pyrimidine-5-carbonitrile]
